# From US8592597B2, “Pyrrole compounds” (Takeda Pharmaceutical Company Limited, priority 2008, dated 2013)
# Where a name gives a salt, the structure may show the parent alone.
# What was measured:
# [1] = tested on: HepG2; test: ATP content test; type: cell-based, Human; settings: HepG2, 100 μM, culture for one day, relative value to control (without drug)
# Experimental: (§1) Human liver cancer-derived cell line HepG2 (ATCC No. HB-8065) was passaged using Dulbecco's Modified Eagle medium (DMEM; Invitrogen) containing 10% fetal bovine serum (FBS; TRACE SCIENTIFIC LTD.), 1 mmol/L sodium pyruvate (Invitrogen), 2 mmol/L L-glutamine (Invitrogen), 50 IU/mL penicillin (Invitrogen) and 50 μg/mL streptomycin (Invitrogen) at 5% CO2, 37° C. The test reagent was prepared with DMSO to 10 mM, and further diluted with DMEM medium containing 0.5% FBS, 1 mmol/L sodium pyruvate, 2 mmol/L L-glutamine, 50 IU/mL penicillin and 50 μg/mL streptomycin to a final concentration of DMSO of 0.1%. HepG2 (2×10^4 cells/well) was cultured on a 96 well white plate (Costar) with the test reagent at 5% CO2, 37° C. After culture for one day, the intracellular ATP content was measured using ATPLITE™ (PerkinElmer Life Sciences). The results are shown in Table 4 (n≧3, average value ±SD) as a relative value (%) to control (without addition of drug).
# [2] = tested on: Caspase-3/7 activity in HepG2 cells; test: Caspase-3/7 activity test; type: cell-based, Human; settings: HepG2, 100 μM, culture for one day, relative to maximum with Staurosporine (100%) and no reagent (0%)
# Experimental: as §1
# The Caspase-3/7 activity in the cells cultured for one day by a method similar to that in Experimental Example 3 was measured using CASPASE-GLO 3/7 Assay (Promega). The results are shown in Table 4 (n≧3, average value ±SD) as relative activity (%) of each reagent based on the maximum value of Caspase-3/7 activity when exposed to Staurosporine (100%), and the activity without addition of a test reagent (0%).
# [3] = target: T1, proton, potassium-adenosine triphosphatase (H+/K+-ATPase) (Sus scrofa, UniProt P19156); test: Proton potassium-adenosine triphosphatase (H+,K+-ATPase) inhibitory activity test; type: biochemical; settings: swine gastric mucous membrane microsomal fraction, pH 6.5, 37° C.
# T1 construct: a gastric mucous membrane microsomal fraction was prepared from the stomach of swine; from tissue; host or cells: swine stomach, gastric mucous membrane microsomal fraction
# Experimental: According to the method [Biochim. Biophys. Acta, 728, 31 (1983)] of Wallmark et al., a gastric mucous membrane microsomal fraction was prepared from the stomach of swine. First, the stomach was removed, washed with tap water, immersed in 3 mol/L brine, and the surface of the mucous membrane was wiped with a paper towel. The gastric mucous membrane was detached, chopped, and homogenized in a 0.25 mol/L saccharose solution (pH 6.8) containing 1 mmol/L EDTA and 10 mmol/L tris-hydrochloric acid using polytron (Kinematica). The obtained homogenate was centrifuged at 20,000×g for 30 min and the supernatant was centrifuged at 100,000×g for 90 min. The precipitate was suspended in 0.25 mol/L saccharose solution, superimposed on a 0.25 mol/L saccharose solution containing 7.5% Ficoll, and centrifuged at 100,000×g for 5 hr. The fraction containing the interface between the both layers was recovered, and centrifugally washed with 0.25 mol/L saccharose solution. The obtained microsomal fraction was used as a proton, potassium-adenosine triphosphatase standard product.
# To 40 μL of a 50 mmol/L HEPES-tris buffer (5 mmol/L magnesium chloride, 10 mmol/L potassium chloride, 10 μmol/L valinomycin, pH=6.5) containing 2.5 μg/mL (based on the protein concentration) of the enzyme standard product was added a test compound (5 μL) dissolved in a 10% aqueous dimethyl sulfoxide solution, and the mixture was incubated at 37° C. for 30 min. The enzyme reaction was started by adding 5 μL of a 2 mmol/L adenosine triphosphate tris salt solution (50 mmol/L HEPES-tris buffer (5 mmol/L magnesium chloride, pH 6.5)). The enzyme reaction was carried out at 37° C. for 20 min, and 15 μL of a malachite green solution (0.12% malachite green solution in sulfuric acid (2.5 mol/L), 7.5% ammonium molybdate and 11% Tween 20 were mixed at a ratio of 100:25:2) was added to quench the reaction. After allowing to stand at room temperature for 15 min, the resulting reaction product of inorganic phosphorus with malachite green was colorimetrically determined at a wavelength of 620 nm. In addition, the amount of the inorganic phosphoric acid in the reaction solution free of potassium chloride was measured in the same manner, which was subtracted from the inorganic phosphoric acid amount in the presence of potassium chloride to determine the proton, potassium-adenosine triphosphatase activity. The inhibitory rate (%) was determined from the activity value of the control and the activity values of various concentrations of the test compound, and the 50% inhibitory concentration (IC50) of the proton, potassium-adenosine triphosphatase was determined.
# T1 sequence (P19156 2-1034 limits assumed): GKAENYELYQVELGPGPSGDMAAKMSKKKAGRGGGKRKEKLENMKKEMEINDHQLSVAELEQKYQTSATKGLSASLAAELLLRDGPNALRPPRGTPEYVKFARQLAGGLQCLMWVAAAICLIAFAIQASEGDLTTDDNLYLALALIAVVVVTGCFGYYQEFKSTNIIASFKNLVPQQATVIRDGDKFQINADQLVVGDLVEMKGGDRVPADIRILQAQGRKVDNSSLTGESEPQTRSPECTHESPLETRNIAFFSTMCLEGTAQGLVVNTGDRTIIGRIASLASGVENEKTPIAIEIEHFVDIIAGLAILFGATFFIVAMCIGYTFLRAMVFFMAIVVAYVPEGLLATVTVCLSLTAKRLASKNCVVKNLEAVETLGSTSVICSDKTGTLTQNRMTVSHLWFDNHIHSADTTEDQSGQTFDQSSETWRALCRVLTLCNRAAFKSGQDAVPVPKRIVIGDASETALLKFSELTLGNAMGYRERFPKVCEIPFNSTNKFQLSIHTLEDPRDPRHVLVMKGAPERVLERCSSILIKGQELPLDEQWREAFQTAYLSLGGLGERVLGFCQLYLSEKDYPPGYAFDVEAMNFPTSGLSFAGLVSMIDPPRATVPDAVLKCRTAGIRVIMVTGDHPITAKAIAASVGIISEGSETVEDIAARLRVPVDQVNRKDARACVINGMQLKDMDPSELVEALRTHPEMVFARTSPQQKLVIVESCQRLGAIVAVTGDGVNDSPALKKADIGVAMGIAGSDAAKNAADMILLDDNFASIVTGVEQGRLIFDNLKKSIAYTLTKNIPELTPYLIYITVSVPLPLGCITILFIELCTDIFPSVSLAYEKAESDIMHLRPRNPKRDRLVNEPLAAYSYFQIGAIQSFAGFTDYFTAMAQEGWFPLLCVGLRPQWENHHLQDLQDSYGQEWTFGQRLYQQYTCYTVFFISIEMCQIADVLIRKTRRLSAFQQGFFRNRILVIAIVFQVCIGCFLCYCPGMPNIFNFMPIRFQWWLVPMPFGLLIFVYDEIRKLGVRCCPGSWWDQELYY
# T1 sequence (P18434 whole entry partner): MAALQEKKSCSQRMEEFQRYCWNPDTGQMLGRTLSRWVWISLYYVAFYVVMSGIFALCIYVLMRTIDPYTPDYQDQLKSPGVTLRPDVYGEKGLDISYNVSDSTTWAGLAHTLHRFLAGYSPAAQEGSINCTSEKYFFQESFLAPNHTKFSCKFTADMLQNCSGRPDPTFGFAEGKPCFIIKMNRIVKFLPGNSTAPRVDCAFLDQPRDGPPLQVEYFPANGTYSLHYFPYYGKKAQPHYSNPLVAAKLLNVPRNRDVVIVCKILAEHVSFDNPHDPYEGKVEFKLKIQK
Structure (SMILES),"ATP content (%, 100 μM) [1]","Caspase-3/7 activity (%, 100 μM) [2]",IC50 [3]
"CNCc1cn(S(=O)(=O)c2cc(C)ccn2)c(-c2cccnc2F)c1F [Example 2, 1-{4-Fluoro-5-(2-fluoropyridin-3-yl)-1-[(4-methylpyridin-2-yl)sulfonyl]-1H-pyrrol-3-yl}-N-methylmethanamine hydrochloride]",85.5%,−1.1%,100 nM
"CNCc1cn(S(=O)(=O)c2ccc(F)cn2)c(-c2cccnc2F)c1F [Example 3, 1-{4-Fluoro-5-(2-fluoropyridin-3-yl)-1-[(5-fluoropyridin-2-yl)sulfonyl]-1H-pyrrol-3-yl}-N-methylmethanamine hydrochloride]",86.5%,−0.5%,100 nM
"CNCc1cn(S(=O)(=O)c2ccc(C)nc2)c(-c2cccnc2F)c1F [Example 8, 1-{4-Fluoro-5-(2-fluoropyridin-3-yl)-1-[(6-methylpyridin-3-yl)sulfonyl]-1H-pyrrol-3-yl}-N-methylmethanamine 0.5 fumarate]",76.7%,2.4%,180 nM
"CNCc1cn(S(=O)(=O)c2ccc(OC)cn2)c(-c2cccnc2F)c1F [Example 10, 1-{4-Fluoro-5-(2-fluoropyridin-3-yl)-1-[(5-methoxypyridin-2-yl)sulfonyl]-1H-pyrrol-3-yl}-N-methylmethanamine hydrochloride]",80.0%,0.9%,280 nM
"CNCc1cn(S(=O)(=O)c2cc(C)ccn2)c(-c2cccnc2F)c1F [Example 23, 1-{4-Fluoro-5-(2-fluoropyridin-3-yl)-1-[(4-methylpyridin-2-yl)sulfonyl]-1H-pyrrol-3-yl}-N-methylmethanamine fumarate]",,,83 nM
"CNCc1cn(S(=O)(=O)c2cncc(F)c2)c(-c2cccnc2F)c1F [Example 25, 1-{4-Fluoro-5-(2-fluoropyridin-3-yl)-1-[(5-fluoropyridin-3-yl)sulfonyl]-1H-pyrrol-3-yl}-N-methylmethanamine 0.5 fumarate]",,,200 nM
"CNCc1cn(S(=O)(=O)c2cncc(F)c2)c(-c2cccnc2F)c1F [Example 26, 1-{4-Fluoro-5-(2-fluoropyridin-3-yl)-1-[(5-fluoropyridin-3-yl)sulfonyl]-1H-pyrrol-3-yl}-N-methylmethanamine succinate]",,,130 nM
"CNCc1cn(S(=O)(=O)c2cncc(F)c2)c(-c2cccnc2F)c1F [Example 27, 1-{4-Fluoro-5-(2-fluoropyridin-3-yl)-1-[(5-fluoropyridin-3-yl)sulfonyl]-1H-pyrrol-3-yl}-N-methylmethanamine L-tartrate]",,,160 nM

# The remaining molecules from weak to strong by IC50 [3], led by results:
"ATP content (%, 100 μM) [1]","Caspase-3/7 activity (%, 100 μM) [2]",IC50 [3],Structure (SMILES)
88.9%,0.3%,200 nM,"CNCc1cn(S(=O)(=O)c2cncc(F)c2)c(-c2cccnc2F)c1F [Example 5, 1-{4-Fluoro-5-(2-fluoropyridin-3-yl)-1-[(5-fluoropyridin-3-yl)sulfonyl]-1H-pyrrol-3-yl}-N-methylmethanamine hydrochloride]"
84.5%,−0.6%,140 nM,"CNCc1cn(S(=O)(=O)c2cc(OC)ccn2)c(-c2cccnc2F)c1F [Example 4, 1-{4-Fluoro-5-(2-fluoropyridin-3-yl)-1-[(4-methoxypyridin-2-yl)sulfonyl]-1H-pyrrol-3-yl}-N-methylmethanamine hydrochloride]"
,,140 nM,"CNCc1cn(S(=O)(=O)c2cc(C)ccn2)c(-c2cccnc2F)c1F [Example 24, 1-{4-Fluoro-5-(2-fluoropyridin-3-yl)-1-[(4-methylpyridin-2-yl)sulfonyl]-1H-pyrrol-3-yl}-N-methylmethanamine succinate]"
